From patent publication US9440951B2, “Quinolone compound” (priority 2011, dated 2016) come the findings set out here.

Values after ≈ are worked out from the molar mass of the structure shown. Read-outs that look alike come from different tables or passages of the source.

The subject of one data set is C. difficile. In words: In vitro antibacterial activity: MIC by broth microdilution. The format is cell-based, Clostridium difficile. The following applies: Clostridioides difficile, anaerobic, tested range 0.008 to 8 μg/ml. The method, then: MICs (minimum inhibitory concentrations) were determined by the broth microdilution technique with 96-well microdilution plates. […] The plates were filled with 100 μl of reinforced clostridial medium (Oxoid; Unipath Ltd., Basingstoke, United Kingdom) per well containing the final antibiotic concentrations. The plates were thawed and preincubated for 3 hours in an anaerobic chamber (Thermal, USA) containing an atmosphere of 80% N2, 15% CO2, and 5% H2. The bacterial inocula were prepared by suspending growth from 48 hours cultures in reinforced clostridial medium. The final inoculum was approximately 1.0×10^5-6 CFU/well. The plates were incubated for 48 hours at 37° C. in the anaerobic chamber. The MIC was defined as the lowest antibiotic concentration that inhibited visible growth. Ciprofloxacin, vancomycin and metronidazole were used as a positive control.
(In broth dilution the organism is exposed to a series of concentrations in liquid medium.)

Where [1] appears, read: strain C. difficile ATCC43255, 48 hours at 37° C., read-out: MIC against C. difficile ATCC43255.
The mark [2] stands for this setting: strain C. difficile ATCC70092, 48 hours at 37° C., read-out: MIC against C. difficile ATCC70092.
Setting [3] is: strain C. difficile ATCC7000057, 48 hours at 37° C., read-out: MIC against C. difficile ATCC7000057.
The mark [4] stands for this setting: strain C. difficile IQCC23903, 48 hours at 37° C., read-out: MIC against C. difficile IQCC23903.

For orientation: MIC means the lowest concentration found to suppress growth. As a reminder, the melting point is the temperature, or range, at which the solid turns liquid.

`Cc1c(-c2cnc(N)c(C#N)c2)c(F)cc2c(=O)c(C(=O)O)cn(C3CC3)c12` [Compound 2-18]: the MIC in the data set on C. difficile (setting [1]) was in the range of 0.016 to 0.063 µg/mL (≈ 0.0423 to 0.167 µM); with C. difficile (setting [2]), 0.008 to 0.063 µg/mL (≈ 0.0211 to 0.167 µM); in the data set with C. difficile (setting [3]), 0.016 to 0.063 µg/mL (≈ 0.0423 to 0.167 µM); in the data set with C. difficile (setting [4]), 0.032 to 0.063 µg/mL (≈ 0.0846 to 0.167 µM).
Turning to `Cc1c(-c2cnc3[nH]c(=O)ccc3c2)c(F)cc2c(=O)c(C(=O)O)cn(C3CC3)c12` [Compound 1-2], the melting point is more than 300 °C. Moreover, the minimum inhibitory concentration (MIC) in the data set with C. difficile (setting [1]) was 0.032 to 0.125 µg/mL (≈ 0.0789 to 0.308 µM). Besides, the MIC in the data set on C. difficile (setting [2]) lay in the range of 0.032 to 0.125 µg/mL (≈ 0.0789 to 0.308 µM). Further, the MIC with C. difficile (setting [3]) was in the range of 0.032 to 0.125 µg/mL (≈ 0.0789 to 0.308 µM). The MIC in the data set with C. difficile (setting [4]) was in the range of 0.063 to 0.25 µg/mL (≈ 0.155 to 0.617 µM).
As to `Cc1c(-c2cc(Cl)c3nccn3c2)c(F)cc2c(=O)c(C(=O)O)cn(C3CC3)c12` [Compound 3-11], the melting point fell in the range of 307 to 311 °C. The MIC in the data set on C. difficile (setting [1]) lay within 0.008 to 0.032 µg/mL (≈ 0.0194 to 0.0777 µM). In addition, in the data set on C. difficile (setting [2]), the MIC was 0.008 to 0.032 µg/mL (≈ 0.0194 to 0.0777 µM). The MIC with C. difficile (setting [3]) lay within 0.016 to 0.032 µg/mL (≈ 0.0389 to 0.0777 µM). Besides, in the data set on C. difficile (setting [4]), the MIC was 0.008 to 0.063 µg/mL (≈ 0.0194 to 0.153 µM).
